Patent publication US20250145594A1, “MODULATORS OF THE INTEGRATED STRESS PATHWAY” (Calico Life Sciences LLC, priority 2020, published 2025)

System: ATF4 luciferase reporter in HEK293T cells
Experiment: ATF4-Luc assay (in vitro model of VWMD)
Format: cell-based, human
Settings: Homo sapiens, HEK-293T, 7 h, HEK293T cells carrying the ATF4 luciferase reporter, 1 μg/mL tunicamycin, One Glo luminescence
Summary of the method: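 Tunicamycin (1 μg/mL) stress with co-added compound for 7 hours in HEK293T cells stably carrying an ATF4 5′-UTR–luciferase reporter. EC50 values come from the luminescent signal (One Glo).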

Row | Structure (SMILES) | EC50 [nM]
1 | O=C(NC12CC(n3cc(C(=O)N4CC[C@@H](OC(F)(F)F)C4)cn3)(C1)C2)[C@H]1C[C@@H](O)c2cc(Cl)ccc2O1 [Compound 370, (2R,4R)-6-chloro-4-hydroxy-N-(3-{4-[(3R)-3-(trifluoromethoxy)pyrrolidine-1-carbonyl]-1H-pyrazol-1-yl}bicyclo[1.1.1]pentan-1-yl)-3,4-dihydro-2H-1-benzopyran-2-carboxamide] | 10 to 50
2 | O=C(NC12CC(n3cc(C(=O)N4CC[C@H](OC(F)(F)F)C4)cn3)(C1)C2)[C@H]1C[C@@H](O)c2cc(Cl)ccc2O1 [Compound 371, (2R,4R)-6-chloro-4-hydroxy-N-(3-{4-[(3S)-3-(trifluoromethoxy)pyrrolidine-1-carbonyl]-1H-pyrazol-1-yl}bicyclo[1.1.1]pentan-1-yl)-3,4-dihydro-2H-1-benzopyran-2-carboxamide] | < 10
3 | O=C(NC12CC(n3cc(N4CC[C@H](COC(F)(F)F)C4)cn3)(C1)C2)[C@H]1C[C@@H](O)c2cc(Cl)ccc2O1 [Compound 373, (2R,4R)-6-chloro-4-hydroxy-N-[3-(4-{(3S)-3-[(trifluoromethoxy)methyl]pyrrolidin-1-yl}-1H-pyrazol-1-yl)bicyclo[1.1.1]pentan-1-yl]-3,4-dihydro-2H-1-benzopyran-2-carboxamide] | 50 to 250
4 | O=C(NC12CC(n3cc(C(=O)N4CC(COC(F)(F)F)C4)cn3)(C1)C2)[C@H]1C[C@@H](O)c2cc(F)c(F)cc2O1 [Compound 374, (2R,4R)-6,7-difluoro-4-hydroxy-N-[3-(4-{3-[(trifluoromethoxy)methyl]azetidine-1-carbonyl}-1H-pyrazol-1-yl)bicyclo[1.1.1]pentan-1-yl]-3,4-dihydro-2H-1-benzopyran-2-carboxamide] | 50 to 250
5 | O=C(NC12CC(n3cc(C(=O)N4CC(COC(F)(F)F)C4)cn3)(C1)C2)[C@H]1C[C@@H](O)c2ccccc2O1 [Compound 375, (2R,4R)-4-hydroxy-N-[3-(4-{3-[(trifluoromethoxy)methyl]azetidine-1-carbonyl}-1H-pyrazol-1-yl)bicyclo[1.1.1]pentan-1-yl]-3,4-dihydro-2H-1-benzopyran-2-carboxamide] | 250 to 500
6 | O=C(N[C@H]1C[C@@H](OC(F)(F)F)C1)c1cnn(C23CC(NC(=O)[C@H]4C[C@@H](O)c5cc(Cl)ccc5O4)(C2)C3)c1 [Compound 376, 1-(3-{[(2R,4R)-6-chloro-4-hydroxy-3,4-dihydro-2H-1-benzopyran-2-carbonyl]amino}bicyclo[1.1.1]pentan-1-yl)-N-[cis-3-(trifluoromethoxy)cyclobutyl]-1H-pyrazole-4-carboxamide] | 50 to 250
7 | O=C(NC12CC(n3cc(C(=O)N4CC(CC(F)F)C4)cn3)(C1)C2)[C@H]1C[C@@H](O)c2cc(Cl)ccc2O1 [Compound 377, (2R,4R)-6-chloro-N-(3-{4-[3-(2,2-difluoroethyl)azetidine-1-carbonyl]-1H-pyrazol-1-yl}bicyclo[1.1.1]pentan-1-yl)-4-hydroxy-3,4-dihydro-2H-1-benzopyran-2-carboxamide] | 250 to 500
8 | O=C(NC12CC(n3cc(C(=O)N4CC[C@H](OC(F)(F)F)C4)cn3)(C1)C2)[C@@H]1C[C@@H](O)c2cc(C(F)(F)F)ccc2O1 [Compound 378, (2S,4R)-4-hydroxy-N-(3-{4-[(3S)-3-(trifluoromethoxy)pyrrolidine-1-carbonyl]-1H-pyrazol-1-yl}bicyclo[1.1.1]pentan-1-yl)-6-(trifluoromethyl)-3,4-dihydro-2H-1-benzopyran-2-carboxamide] | < 10
9 | O=C(NC12CC(n3cc(N4CC[C@@H](OC(F)(F)F)C4)cn3)(C1)C2)[C@@H]1C[C@@H](O)c2cc(Cl)c(F)cc2O1 [Compound 379, (2S,4R)-6-chloro-7-fluoro-4-hydroxy-N-(3-{4-[(3R)-3-(trifluoromethoxy)pyrrolidin-1-yl]-1H-pyrazol-1-yl}bicyclo[1.1.1]pentan-1-yl)-3,4-dihydro-2H-1-benzopyran-2-carboxamide] | < 10
10 | O=C(NC12CC(n3cc(-c4ccc(OC(F)(F)F)cn4)cn3)(C1)C2)[C@H]1C[C@@H](O)c2cc(Cl)c(Br)cc2O1 [Compound 380, (2R,4R)-7-bromo-6-chloro-4-hydroxy-N-(3-{4-[5-(trifluoromethoxy)pyridin-2-yl]-1H-pyrazol-1-yl}bicyclo[1.1.1]pentan-1-yl)-3,4-dihydro-2H-1-benzopyran-2-carboxamide] | < 10
11 | O=C(COc1cc(F)c(Cl)c(Br)c1)N[C@H]1C[C@H]2C[C@@H]1C[C@@H]2NC(=O)CO[C@H]1C[C@@H](OC(F)(F)F)C1 [Compound 381, 2-(3-bromo-4-chloro-5-fluorophenoxy)-N-[(1R,2S,4R,5S)-5-(2-{[cis-3-(trifluoromethoxy)cyclobutyl]oxy}acetamido)bicyclo[2.2.1]heptan-2-yl]acetamide] | 10 to 50
12 | O=C(NC12CC(n3cc(C(=O)N4CC[C@H](F)C4)cn3)(C1)C2)[C@H]1C[C@@H](O)c2cc(Cl)ccc2O1 [Compound 382, (2R,4R)-6-chloro-N-(3-{4-[(3S)-3-fluoropyrrolidine-1-carbonyl]-1H-pyrazol-1-yl}bicyclo[1.1.1]pentan-1-yl)-4-hydroxy-3,4-dihydro-2H-1-benzopyran-2-carboxamide] | 50 to 250
13 | O=C(NC12CC(n3cc(N4CCN(CC(F)(F)F)CC4=O)cn3)(C1)C2)[C@H]1C[C@@H](O)c2cc(Cl)ccc2O1 [Compound 383, (2R,4R)-6-chloro-4-hydroxy-N-(3-{4-[2-oxo-4-(2,2,2-trifluoroethyl)piperazin-1-yl]-1H-pyrazol-1-yl}bicyclo[1.1.1]pentan-1-yl)-3,4-dihydro-2H-1-benzopyran-2-carboxamide] | < 10
14 | O=C(NC12CC(n3cc(C(=O)N4CCC(F)(F)C4)cn3)(C1)C2)[C@H]1C[C@@H](O)c2cc(Cl)ccc2O1 [Compound 384, (2R,4R)-6-chloro-N-{3-[4-(3,3-difluoropyrrolidine-1-carbonyl)-1H-pyrazol-1-yl]bicyclo[1.1.1]pentan-1-yl}-4-hydroxy-3,4-dihydro-2H-1-benzopyran-2-carboxamide] | 250 to 500
15 | O=C(NC12CC(n3cc([C@H]4C[C@@H](OC(F)(F)F)C4)nn3)(C1)C2)[C@H]1C[C@@H](O)c2cc(Cl)ccc2O1 [Compound 385, (2R,4R)-6-chloro-4-hydroxy-N-(3-{4-[cis-3-(trifluoromethoxy)cyclobutyl]-1H-1,2,3-triazol-1-yl}bicyclo[1.1.1]pentan-1-yl)-3,4-dihydro-2H-1-benzopyran-2-carboxamide] | < 10
16 | O=C(NC12CC(n3cnc(C(=O)N4CC[C@H](OC(F)(F)F)C4)c3)(C1)C2)[C@H]1C[C@@H](O)c2cc(Cl)ccc2O1 [Compound 386, (2R,4R)-6-chloro-4-hydroxy-N-(3-{4-[(3S)-3-(trifluoromethoxy)pyrrolidine-1-carbonyl]-1H-imidazol-1-yl}bicyclo[1.1.1]pentan-1-yl)-3,4-dihydro-2H-1-benzopyran-2-carboxamide] | < 10
17 | Cn1nc(C23CC(NC(=O)COc4ccc(Cl)c(F)c4)(C2)C3)cc1OC[C@H]1C[C@@H](OC(F)(F)F)C1 [Compound 387, 2-(4-chloro-3-fluorophenoxy)-N-[3-(1-methyl-5-{[cis-3-(trifluoromethoxy)cyclobutyl]methoxy}-1H-pyrazol-3-yl)bicyclo[1.1.1]pentan-1-yl]acetamide] | 50 to 250
18 | O=C(CO[C@H]1C[C@@H](OC(F)(F)F)C1)N[C@H]1C[C@H]2C[C@@H]1C[C@@H]2NC(=O)[C@@H]1C[C@@H](O)c2cc(Cl)ccc2O1 [Compound 388, (2S,4R)-6-chloro-4-hydroxy-N-[(1R,2S,4R,5S)-5-(2-{[cis-3-(trifluoromethoxy)cyclobutyl]oxy}acetamido)bicyclo[2.2.1]heptan-2-yl]-3,4-dihydro-2H-1-benzopyran-2-carboxamide] | 50 to 250
19 | O=C(NC12CC(n3cc(N4CC[C@@H](OC(F)(F)F)C4)cn3)(C1)C2)[C@H]1C[C@@H](O)c2cc(Cl)c(F)cc2O1 [Compound 389, (2R,4R)-6-chloro-7-fluoro-4-hydroxy-N-(3-{4-[(3R)-3-(trifluoromethoxy)pyrrolidin-1-yl]-1H-pyrazol-1-yl}bicyclo[1.1.1]pentan-1-yl)-3,4-dihydro-2H-1-benzopyran-2-carboxamide] | < 10
20 | O=C(NC12CC(n3cc(C(=S)N4CC[C@H](OC(F)(F)F)C4)cn3)(C1)C2)[C@H]1C[C@@H](O)c2cc(Cl)ccc2O1 [Compound 390, (2R,4R)-6-chloro-4-hydroxy-N-(3-{4-[(3S)-3-(trifluoromethoxy)pyrrolidine-1-carbothioyl]-1H-pyrazol-1-yl}bicyclo[1.1.1]pentan-1-yl)-3,4-dihydro-2H-1-benzopyran-2-carboxamide] | < 10
21 | O=C(NC12CC(n3cnc(-c4ccc(OC(F)(F)F)c(F)c4F)c3)(C1)C2)[C@H]1C[C@@H](O)c2cc(Cl)ccc2O1 [Compound 391, (2R,4R)-6-chloro-N-(3-{4-[2,3-difluoro-4-(trifluoromethoxy)phenyl]-1H-imidazol-1-yl}bicyclo[1.1.1]pentan-1-yl)-4-hydroxy-3,4-dihydro-2H-1-benzopyran-2-carboxamide] | < 10
22 | O=C(NC12CC(n3cnc(C(=O)N4CCC[C@@H](OC(F)(F)F)C4)c3)(C1)C2)[C@H]1C[C@@H](O)c2cc(Cl)ccc2O1 [Compound 392, (2R,4R)-6-chloro-4-hydroxy-N-(3-{4-[(3R)-3-(trifluoromethoxy)piperidine-1-carbonyl]-1H-imidazol-1-yl}bicyclo[1.1.1]pentan-1-yl)-3,4-dihydro-2H-1-benzopyran-2-carboxamide] | 250 to 500
23 | O=C(CO[C@H]1C[C@@H](OC(F)(F)F)C1)N[C@@H]1C[C@@H]2C[C@H]1C[C@H]2NC(=O)[C@@H]1C[C@@H](O)c2cc(Cl)ccc2O1 [Compound 393, (2S,4R)-6-chloro-4-hydroxy-N-[(1S,2R,4S,5R)-5-(2-{[cis-3-(trifluoromethoxy)cyclobutyl]oxy}acetamido)bicyclo[2.2.1]heptan-2-yl]-3,4-dihydro-2H-1-benzopyran-2-carboxamide] | 50 to 250
